Assay results as given in patent US11077090B2, “Compounds and compositions and uses thereof” (Sunovion Pharmaceuticals Inc., priority 2016, dated 2021).
Like-named read-outs stand apart in the source and are kept apart here.

Test system: compound-treated mice
Assay: Neuropharmacological assay (SmartCube): behavioral activity signature and minimal effective dose
Format: in vivo
Conditions: for minimal effective dose: Mus musculus, ip, MED = dose having 50% or more total activity; for AD: ADHD (probability of activity signature) / AG: analgesic (probability of activity signature) / AX: anxiolytic (probability of activity signature) / CE: cognitive enhancer (probability of activity signature) / DP: anti-depressant (probability of activity signature) / MS: mood stabilizer (probability of activity signature) / PS: anti-psychotic (probability of activity signature) / SD: sedative hypnotic (probability of activity signature) / UN: uncharacterized CNS activity (probability of activity signature): i.p. 15 min before test, most efficacious dose(s)
How it was run: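 Video-recorded behavior is compared algorithmically against a reference-compound database, yielding class probabilities (best dose reported). Compounds given i.p. in NMP/PEG/propylene glycol 15 min pre-test at 3 doses; potency as MED, the dose (mpk, range usually 0.3–30) reaching ≥50% total activity.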

[1] = read-out: Potency: minimal effective dose (MED)
[2] = read-out: Potency: minimal effective dose (MED), binned

| SMILES | minimal effective dose [1] | AD: ADHD (probability of activity signature) | AG: analgesic (probability of activity signature) | AX: anxiolytic (probability of activity signature) | CE: cognitive enhancer (probability of activity signature) | DP: anti-depressant (probability of activity signature) | MS: mood stabilizer (probability of activity signature) | PS: anti-psychotic (probability of activity signature) | SD: sedative hypnotic (probability of activity signature) | UN: uncharacterized CNS activity (probability of activity signature) | minimal effective dose [2] |
| --- | --- | --- | --- | --- | --- | --- | --- | --- | --- | --- | --- |
| C[C@H]1OCc2ccc(Cl)c(Cl)c2[C@@H]1N.Cl [Example 92] | 10 to 30 mg/kg | + (LOQ ≤ + <5%) | + (LOQ ≤ + <5%) | ++ (5% ≤ ++ <25%) | + (LOQ ≤ + <5%) | ++ (5% ≤ ++ <25%) | + (LOQ ≤ + <5%) | + (LOQ ≤ + <5%) | + (LOQ ≤ + <5%) | ++++ (50% ≤ ++++) |  |
| CCc1cccc2c1C(N)COC2.Cl (centres unmarked) [Example 53, 5-Ethylisochroman-4-amine hydrochloride] | 3 to 10 mg/kg | + (LOQ ≤ + <5%) | ++ (5% ≤ ++ <25%) | ++ (5% ≤ ++ <25%) | ++ (5% ≤ ++ <25%) | ++ (5% ≤ ++ <25%) | + (LOQ ≤ + <5%) | ++ (5% ≤ ++ <25%) | ++ (5% ≤ ++ <25%) | ++++ (50% ≤ ++++) |  |
| CN[C@H]1COCc2cccc(Cl)c21 [Example 146] | 3 to 10 mg/kg | + (LOQ ≤ + <5%) | ++ (5% ≤ ++ <25%) | +++ (25% ≤ +++ <50%) | ++ (5% ≤ ++ <25%) | + (LOQ ≤ + <5%) | + (LOQ ≤ + <5%) | + (LOQ ≤ + <5%) | + (LOQ ≤ + <5%) | ++ (5% ≤ ++ <25%) |  |
| Cl.N[C@H]1c2ccccc2CO[C@@H]1CF (single isomer, unassigned) [Example 276, cis-3-(fluoromethyl)isochroman-4-amine hydrochloride] |  | + (LOQ ≤ + <5%) | + (LOQ ≤ + <5%) | + (LOQ ≤ + <5%) | + (LOQ ≤ + <5%) | + (LOQ ≤ + <5%) | ++ (5% ≤ ++ <25%) | + (LOQ ≤ + <5%) | ++ (5% ≤ ++ <25%) | + (LOQ ≤ + <5%) | 3 to 10 mg/kg |
| C[C@H]1OCc2ccc(C(F)(F)F)cc2[C@@H]1N.Cl [Example 229] |  | + (LOQ ≤ + <5%) | + (LOQ ≤ + <5%) | ++ (5% ≤ ++ <25%) | ++ (5% ≤ ++ <25%) | ++ (5% ≤ ++ <25%) | + (LOQ ≤ + <5%) | ++ (5% ≤ ++ <25%) | + (LOQ ≤ + <5%) | +++ (25% ≤ +++ <50%) | 3 to 10 mg/kg |
| COc1ccc2c(c1)CO[C@@H](C)[C@H]2N.Cl [Example 233] |  | + (LOQ ≤ + <5%) | ++ (5% ≤ ++ <25%) | ++ (5% ≤ ++ <25%) | ++ (5% ≤ ++ <25%) | + (LOQ ≤ + <5%) | + (LOQ ≤ + <5%) | + (LOQ ≤ + <5%) | + (LOQ ≤ + <5%) | + (LOQ ≤ + <5%) | > 30 mg/kg |
| C[C@H]1OCc2cc(F)ccc2[C@@H]1N.Cl (single isomer, unassigned) [Example 213] |  | + (LOQ ≤ + <5%) | ++ (5% ≤ ++ <25%) | ++ (5% ≤ ++ <25%) | ++ (5% ≤ ++ <25%) | ++ (5% ≤ ++ <25%) | + (LOQ ≤ + <5%) | ++ (5% ≤ ++ <25%) | + (LOQ ≤ + <5%) | +++ (25% ≤ +++ <50%) | 3 to 10 mg/kg |
| CC1(C)OCc2ccccc2C1N.Cl (centres unmarked) [Example 101, 3,3-Dimethylisochroman-4-amine hydrochloride] | 10 to 30 mg/kg | + (LOQ ≤ + <5%) | ++ (5% ≤ ++ <25%) | +++ (25% ≤ +++ <50%) | + (LOQ ≤ + <5%) | ++ (5% ≤ ++ <25%) | + (LOQ ≤ + <5%) | ++ (5% ≤ ++ <25%) | ++ (5% ≤ ++ <25%) | + (LOQ ≤ + <5%) |  |
| CC[C@H]1OCc2ccccc2[C@@H]1N.Cl (single isomer, unassigned) [Example 199] |  | + (LOQ ≤ + <5%) | ++ (5% ≤ ++ <25%) | ++++ (50% ≤ ++++) | ++ (5% ≤ ++ <25%) | + (LOQ ≤ + <5%) | + (LOQ ≤ + <5%) | ++ (5% ≤ ++ <25%) | ++ (5% ≤ ++ <25%) | ++++ (50% ≤ ++++) | < 3 mg/kg |
| Cc1cccc2c1COC[C@@H]2N (single isomer, unassigned) [Example 130] | 3 to 10 mg/kg | + (LOQ ≤ + <5%) | ++ (5% ≤ ++ <25%) | ++ (5% ≤ ++ <25%) | ++ (5% ≤ ++ <25%) | ++ (5% ≤ ++ <25%) | + (LOQ ≤ + <5%) | +++ (25% ≤ +++ <50%) | ++ (5% ≤ ++ <25%) | ++++ (50% ≤ ++++) |  |
| Cc1cccc2c1[C@H](N)[C@@H](C)OC2 (single isomer, unassigned) [Example 167] |  | + (LOQ ≤ + <5%) | ++ (5% ≤ ++ <25%) | ++ (5% ≤ ++ <25%) | + (LOQ ≤ + <5%) | + (LOQ ≤ + <5%) | + (LOQ ≤ + <5%) | ++ (5% ≤ ++ <25%) | + (LOQ ≤ + <5%) | ++++ (50% ≤ ++++) | < 3 mg/kg |
